Results taken from ChEMBL document CHEMBL4680223, “Development of bivalent triarylalkene- and cyclofenil-derived dual estrogen receptor antagonists and downregulators” (Eur J Med Chem, 2020).
Converted amounts (≈) assume the structure as drawn. The source made the active and inactive calls. No cut-off for these calls is given here.

Experiments:
Estrogen receptor [1] = target: T1, Estrogen receptor (Homo sapiens, UniProt P03372); assay: Agonist activity at ERalpha (unknown origin) expressed in human U2OS cells at 0.1 to 1 uM measured after 21 hrs by dual luciferase reporter gene assay; type: cell-based; conditions: dose 0.1-1 µM
T1 sequence (P03372 whole entry): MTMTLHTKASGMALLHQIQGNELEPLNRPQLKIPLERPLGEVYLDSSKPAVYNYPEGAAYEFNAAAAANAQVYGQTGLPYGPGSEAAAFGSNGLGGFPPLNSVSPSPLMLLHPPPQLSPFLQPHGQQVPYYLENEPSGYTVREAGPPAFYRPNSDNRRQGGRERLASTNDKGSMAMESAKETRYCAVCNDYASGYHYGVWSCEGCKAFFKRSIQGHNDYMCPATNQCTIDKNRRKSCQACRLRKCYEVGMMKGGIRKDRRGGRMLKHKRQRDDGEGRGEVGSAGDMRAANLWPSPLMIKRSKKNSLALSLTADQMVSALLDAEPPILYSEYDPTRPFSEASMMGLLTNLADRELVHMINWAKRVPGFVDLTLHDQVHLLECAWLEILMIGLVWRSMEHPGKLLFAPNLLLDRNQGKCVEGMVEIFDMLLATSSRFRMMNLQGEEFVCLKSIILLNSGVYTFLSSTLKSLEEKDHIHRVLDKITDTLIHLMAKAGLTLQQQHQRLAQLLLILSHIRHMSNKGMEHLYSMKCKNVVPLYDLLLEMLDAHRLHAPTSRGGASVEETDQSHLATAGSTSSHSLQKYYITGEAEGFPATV

COS-7 [2] = assay: Cytotoxicity against African green monkey COS7 cells assessed as reduction in cell metabolic activity up to 20 uM measured after 72 hrs by modified MTT based EZ4U assay; type: ADME; conditions: chlorocebus aethiops, cos-7, 72 h
[3] = Drug uptake in African green monkey COS7 cells assessed per mg protein at 10 uM incubated for 24 hrs by fluorescence assay; type: ADME; conditions: chlorocebus aethiops, cos-7, 24 h
[4] = Drug uptake in human MCF7 cells assessed per mg protein at 10 uM incubated for 24 hrs by fluorescence assay; type: ADME, cell-based; conditions: mcf7, 24 h
Estrogen receptor beta [5] = target: T2, Estrogen receptor beta (Homo sapiens, UniProt Q92731); assay: Agonist activity at recombinant human GST-tagged ERbeta assessed as increase in fluorescein-labelled coactivator PGC1 peptide recruitment at 1 uM by LanthaScreen TR-FRET assay
Estrogen receptor beta [6] = target: T2, Estrogen receptor beta
Estrogen receptor [7] = target: T1, Estrogen receptor
physchem = conditions: water
Description: Aqueous solubility of compound in water

Estrogen receptor beta [8] = target: T2, Estrogen receptor beta; remark: listed apart in the source
Estrogen receptor beta [9] = target: T2, Estrogen receptor beta; assay: Antagonist activity at recombinant human GST-tagged ERbeta assessed as inhibition of E2-induced increase in fluorescein-labelled coactivator PGC1 peptide recruitment at 100 nM measured after 30 mins by LanthaScreen TR-FRET assay relative to control; conditions: filed as antagonist
Estrogen receptor [10] = target: T1, Estrogen receptor; remark: listed apart in the source
Estrogen receptor beta [11] = target: T2, Estrogen receptor beta; assay: Agonist activity at ERbeta (unknown origin) expressed in human U2OS cells at 0.1 to 1 uM measured after 21 hrs by dual luciferase reporter gene assay; type: cell-based; conditions: dose 0.1-1 µM
Estrogen receptor beta [12] = target: T2, Estrogen receptor beta; assay: Antagonist activity at recombinant human GST-tagged ERbeta assessed as inhibition of E2-induced increase in fluorescein-labelled coactivator PGC1 peptide recruitment at 1 uM measured after 10 to 30 mins by LanthaScreen TR-FRET assay relative to control; conditions: filed as antagonist, time 10-30 min
MCF7 [13] = assay: Antiproliferative activity against human MCF7 cells assessed as reduction in cell metabolic activity at 10 uM measured after 72 hrs by modified MTT based EZ4U assay relative to control; type: functional; parameters: scale not given: the % may be the effect or the level left
COS-7 [14] = assay: Cytotoxicity against African green monkey COS7 cells assessed as reduction in cell metabolic activity up to 10 uM measured after 72 hrs by modified MTT based EZ4U assay; type: ADME; conditions: chlorocebus aethiops, cos-7, 72 h
MCF7 [15] = assay: cells; conditions: Homo sapiens, MCF7, 72 h
Description: Antiproliferative activity against human MCF7 cells assessed as reduction in cell mass measured after 72 hrs by crystal violet staining based assay

COS-7 [16] = assay: cells; conditions: Chlorocebus aethiops, COS-7, 72 h
Description: Cytotoxicity against African green monkey COS7 cells assessed as reduction in cell mass measured after 72 hrs by crystal violet staining based assay

MCF7 [17] = assay: Antiproliferative activity against human MCF7 cells assessed as cell mass at 10 uM measured after 72 hrs by crystal violet staining based assay relative to control; type: functional
MCF7 [18] = assay: Antiproliferative activity against human MCF7 cells assessed as cell mass at 50 nM measured after 72 hrs by crystal violet staining based assay relative to control; type: functional
MDA-MB-231 [19] = assay: Antiproliferative activity against human MDA-MB-231 cells assessed as reduction in cell mass at 10 uM measured after 72 hrs by crystal violet staining based assay relative to control; type: functional; parameters: scale not given: the % may be the effect or the level left
SK-BR-3 [20] = assay: Antiproliferative activity against human SK-BR-3 cells assessed as cell mass at 20 uM measured after 72 hrs by crystal violet staining based assay relative to control; type: functional
MDA-MB-231 [21] = assay: Antiproliferative activity against human MDA-MB-231 cells assessed as cell mass at 20 uM measured after 72 hrs by crystal violet staining based assay relative to control; type: functional
SK-BR-3 [22] = assay: Antiproliferative activity against human SK-BR-3 cells assessed as reduction in cell mass at 10 uM measured after 72 hrs by crystal violet staining based assay relative to control; type: functional; parameters: scale not given: the % may be the effect or the level left
[23] = target: T3, Estrogen receptor (Homo sapiens) (UniProt P03372); assay: Selective estrogen receptor alpha degrader activity in human MCF7 cells assessed as down regulation of ERalpha expression at 1 uM measured after 4 hrs in presence of protease inhibitor MG-132 by Western blot analysis; type: cell-based
T3 sequence (whole entry): T1 sequence (P03372 whole entry)

Estrogen receptor beta [24] = target: T2, Estrogen receptor beta; assay: Antagonist activity at recombinant human GST-tagged ERbeta assessed as inhibition of E2-induced increase in fluorescein-labelled coactivator PGC1 peptide recruitment at 5 uM measured after 30 mins by LanthaScreen TR-FRET assay relative to control; conditions: filed as antagonist
MCF7 [25] = assay: Antiproliferative activity against human MCF7 cells assessed as reduction in cell metabolic activity up to 10 uM measured after 72 hrs by modified MTT based EZ4U assay; type: functional; conditions: dose microM <=10, time 72.0 hrs
Estrogen receptor beta [26] = target: T2, Estrogen receptor beta; assay: Antagonist activity at recombinant human GST-tagged ERbeta assessed as inhibition of E2-induced increase in fluorescein-labelled coactivator PGC1 peptide recruitment at 1 uM measured after 10 mins by LanthaScreen TR-FRET assay; conditions: filed as antagonist

T2 sequence (Q92731 whole entry): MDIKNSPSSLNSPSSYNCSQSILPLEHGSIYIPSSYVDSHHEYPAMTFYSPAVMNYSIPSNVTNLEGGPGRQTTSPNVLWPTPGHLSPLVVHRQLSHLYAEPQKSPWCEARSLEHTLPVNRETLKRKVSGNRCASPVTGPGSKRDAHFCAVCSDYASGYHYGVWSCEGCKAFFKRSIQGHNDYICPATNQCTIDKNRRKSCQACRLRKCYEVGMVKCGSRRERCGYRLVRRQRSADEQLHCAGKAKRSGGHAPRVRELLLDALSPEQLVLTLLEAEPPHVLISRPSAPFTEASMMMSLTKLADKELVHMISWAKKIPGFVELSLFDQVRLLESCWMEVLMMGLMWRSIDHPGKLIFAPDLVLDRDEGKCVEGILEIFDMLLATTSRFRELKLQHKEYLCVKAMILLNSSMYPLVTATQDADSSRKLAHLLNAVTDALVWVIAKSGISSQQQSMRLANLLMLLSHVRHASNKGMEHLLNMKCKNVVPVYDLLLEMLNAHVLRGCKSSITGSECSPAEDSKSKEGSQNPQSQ

Structure (SMILES) | Activity (Estrogen receptor [1]) | Activity (COS-7 [2]) | Activity (Estrogen receptor beta [5]) | IC50 (Estrogen receptor beta [6]) [nM] | IC50 (Estrogen receptor [7]) [nM] | solubility (physchem) [µM] | IC50 (Estrogen receptor beta [8]) [nM] | inhibition (Estrogen receptor beta [9]) [%] | IC50 (Estrogen receptor [10]) [nM] | Activity (Estrogen receptor beta [11]) | Activity (COS-7 [14]) | further results
CC/C(=C(/c1ccc(O)cc1)c1ccc(/C=C/C(=O)NCCN)cc1)c1ccccc1.O=C(O)C(F)(F)F.O=C(O)C(F)(F)F.O=C(O)C(F)(F)F | Not Active | Non-Toxic |  |  |  |  |  |  |  |  |  | Drug uptake [3]: 33.7 nmol; Drug uptake [4]: 35.3 nmol
CC/C(=C(/c1ccc(O)cc1)c1ccc(/C=C/C(=O)NCCCCNC(=O)/C=C/c2ccc(/C(=C(\CC)c3ccccc3)c3ccc(O)cc3)cc2)cc1)c1ccccc1 | Not Active | Non-Toxic | Not Active | 44 | 290 | 19 (≈ 15.1 µg/mL) | 215 | 50 | 18.9 | Not Active |  | Drug uptake [3]: 3.92 nmol; Drug uptake [4]: 4.67 nmol; inhibition (Estrogen receptor beta [12]): 100%
O=C(/C=C/c1ccc(C(=C2CCCCC2)c2ccc(O)cc2)cc1)NCCCNC(=O)/C=C/c1ccc(C(=C2CCCCC2)c2ccc(O)cc2)cc1 | Not Active |  | Not Active | 34 | 565 | 15.4 (≈ 10.9 µg/mL) | 304 | 50 | 1.67 | Not Active | Non-Toxic | Activity (MCF7 [13]): 53%
C[C@]12CC[C@@H]3c4ccc(O)cc4C[C@@H](CCCCCCCCC[S+]([O-])CCCC(F)(F)C(F)(F)F)[C@H]3[C@@H]1CC[C@@H]2O (some centres undefined) [FULVESTRANT] |  | Non-Toxic |  |  |  |  |  |  |  |  |  | IC50 (MCF7 [15]): 4930 nM; IC50 (COS-7 [16]): 34000 nM; T/C (MCF7 [17]): 75.5%; T/C (MCF7 [18]): 64%
O=C(/C=C/c1ccc(C(=C2CCCCC2)c2ccc(O)cc2)cc1)NCCNC(=O)/C=C/c1ccc(C(=C2CCCCC2)c2ccc(O)cc2)cc1 |  |  | Not Active | 27.5 |  | 6.5 (≈ 4.5 µg/mL) | 216 |  |  | Not Active |  | 
CC/C(=C(/c1ccc(O)cc1)c1ccc(OCCN(C)C)cc1)c1ccccc1 |  | Non-Toxic |  |  |  |  |  |  |  |  |  | Activity (MDA-MB-231 [19]): 79%; T/C (SK-BR-3 [20]): -81%; IC50 (MCF7 [15]): 4940 nM; T/C (MDA-MB-231 [21]): -80%; IC50 (COS-7 [16]): 8690 nM; Activity (SK-BR-3 [22]): 58%
CC/C(=C(/c1ccc(O)cc1)c1ccc(/C=C/C(=O)NCCNC(=O)/C=C/c2ccc(/C(=C(\CC)c3ccccc3)c3ccc(O)cc3)cc2)cc1)c1ccccc1 | Not Active | Non-Toxic | Not Active | 67.7 | 260 | > 40 | 78.7 |  | 15.1 | Not Active |  | 
CC/C(=C(/c1ccc(O)cc1)c1ccc(/C=C/C(=O)NCCCNC(=O)/C=C/c2ccc(/C(=C(\CC)c3ccccc3)c3ccc(O)cc3)cc2)cc1)c1ccccc1 | Not Active |  | Not Active | 22.2 | 136 | 24 (≈ 18.7 µg/mL) | 153 | 50 | 1.28 | Not Active |  | Activity [23]: Active; inhibition (Estrogen receptor beta [12]): 100%
O=C(/C=C/c1ccc(C(=C2CCCCC2)c2ccc(O)cc2)cc1)NCCCCCNC(=O)/C=C/c1ccc(C(=C2CCCCC2)c2ccc(O)cc2)cc1 |  |  |  |  |  | 10 (≈ 7.35 µg/mL) |  |  |  |  | Non-Toxic | Activity (MCF7 [13]): 50%
CC/C(=C(\c1ccc(O)cc1)c1ccc(/C=C/C(=O)O)cc1)c1ccccc1 |  |  |  |  |  |  |  |  |  |  | Non-Toxic | Activity [23]: inactive; inhibition (Estrogen receptor beta [24]): 50%; Activity (MCF7 [25]): inactive; T/C (MCF7 [17]): 33%; inhibition (Estrogen receptor beta [26]): Active
CC/C(=C(/c1ccc(O)cc1)c1ccc(/C=C/C(=O)NCCCCCNC(=O)/C=C/c2ccc(/C(=C(\CC)c3ccccc3)c3ccc(O)cc3)cc2)cc1)c1ccccc1 |  |  | Not Active | 15.5 |  | 34 (≈ 27.4 µg/mL) | 256 |  |  | Not Active |  | 
O=C(/C=C/c1ccc(C(=C2CCCCC2)c2ccc(O)cc2)cc1)NCCCCNC(=O)/C=C/c1ccc(C(=C2CCCCC2)c2ccc(O)cc2)cc1 |  |  | Not Active | 15.7 |  | 10 (≈ 7.21 µg/mL) | 54.8 | 50 |  | Not Active | Non-Toxic | Drug uptake [3]: 11.7 nmol; Drug uptake [4]: 5.22 nmol; Activity (MCF7 [13]): 69%
